According to patent publication US11807625B2, “Capsid inhibitors for the prevention of HIV” (Gilead Sciences, Inc., priority 2019, dated 2023):

Tested on: SHIV
Test: PrEP efficacy in rhesus repeat intrarectal SHIV challenge model, plasma viral load by qRT-PCR
Type: in vivo, rhesus macaques
Details: for Plasma SHIV: rhesus, individual animals
Protocol: The PrEP efficacy a compound of Formula (Ib) in rhesus was evaluated using a repeat intrarectal (IR) challenge model.
This study also established a correlation between exposure and protection using a single high-dose administration of a compound of Formula (Ib) vs. placebo, followed by multiple weekly IR challenges until infection occured. In this study, multiple challenges overlapped with clinically-relevant drug levels. The supratherapeutic IQs (inhibitory quotients) were assessed to maximize protection and achieve proof-of-concept in case rectal tissue levels were much lower than in plasma. Lower doses of a compound of Formula (Ib), or a pharmaceutically acceptable salt thereof, were assessed to capture more challenges at clinically relevant exposures, reducing the number of IR challenges, and facilitating a drug washout phase. The washout phase lasted for at least 20 weeks. In some embodiments, the washout phase lasted for 20-25 weeks. The washout phase of these studies was important to enable the administered drug concentrations to decline sufficiently below those that were expected to be clinically suppressive in order to confirm that animals that remained aviremic in the study did so because they were protected from infection as opposed to being infected following one or more of the viral challenges but remaining suppressed by prolonged therapeutic concentrations of the long-acting drug in plasma and/or tissue compartments.
FIG. 3 is a schematic of the study using a compound of Formula (Ib) in adult rhesus macaques (1:1 male/female ratio). Eight animals per group were treated with a single dose of placebo control, 150 mg/kg of a compound of Formula (Ib) (“Compound 1b”) or 300 mg/kg of a compound of Formula (Ib) (“Compound 1b”) on week 0 and allowed to wash out over time. All animals were challenged intrarectally with SHIV weekly beginning on week 1 until detectable viremia or up to a maximum of 15 challenges. SHIV challenge titer was increased over time from 10 TCID50 to 100 TCID50 through week 15 as depicted. Animal SHIV infection rate was assessed by weekly plasma viral load monitoring by qRT-PCR through study week 20. The protective efficacy of a compound of Formula (Ib) (“Compound 1b”) was established by comparing to infection rate observed in the placebo control group using the Cox proportional hazards model analysis.
Viral infection was scored one week after each SHIV challenge using a quantitative RT-PCR assay. Infected animals were defined as having a viral load >200 copies per mL plasma and the corresponding plasma viral load values are bolded.
Viral load measurements details: RNA was extracted from plasma using a QIAcube HT and the QIAcube 96 Cador pathogen HT kit (Qiagen). Gag RNA standards were generated using the AmpliCapMax™ T7 High Yield Message Maker Kit (Cell Script) and purified with RNA clean and concentrator kit (Zymo Research). Log dilutions of RNA were included with each assay run. Reverse transcription of both standards and samples was performed using Superscript III VILO (Invitrogen). Quantitative PCR was performed using the Quantstudio 6 Flex system with TaqMan™ Fast Advanced Master Mix (Applied Biosystems). Primer sequences were F-[…] (SEQ ID NO. 1) and R-[…] (SEQ ID NO. 2). The probe sequence was […] (SEQ ID NO. 3), and probe was labeled with FAM and BHQ (Biosearch Technologies). Viral loads were calculated as gag copies per mL.

## CC(C)(C#Cc1ccc(-c2ccc(Cl)c3c(NS(=O)(=O)C4CC4)nn(CC(F)F)c23)c([C@H](Cc2cc(F)cc(F)c2)NC(=O)Cn2nc(C(F)F)c3c2C(F)(F)[C@@H]2C[C@H]32)n1)S(C)(=O)=O [Compound Ib, N—((S)-1-(3-(4-chloro-3-(cyclopropanesulfonamido)-1-(2,2-difluoroethyl)-1H-indazol-7-yl)-6-(3-methyl-3-(methylsulfonyl)but-1-yn-1-yl)pyridin-2-yl)-2-(3,5-difluorophenyl)ethyl)-2-((3b S,4aR)-3-(difluoromethyl)-5,5-difluoro-3b,4,4a,5-tetrahydro-1H-cyclopropa[3,4]cyclopenta[1,2-c]pyrazol-1-yl)acetamide]
150 mg/kg SC day 0, study week 1, intrarectal SHIV dose 10 x TCID50
  Plasma SHIV: <200 copies/mL
150 mg/kg SC day 0, study week 2, intrarectal SHIV dose 10 x TCID50
  Plasma SHIV: <200 copies/mL
150 mg/kg SC day 0, study week 3, intrarectal SHIV dose 10 x TCID50
  Plasma SHIV: <200 copies/mL
150 mg/kg SC day 0, study week 4, intrarectal SHIV dose 10 x TCID50
  Plasma SHIV: <200 copies/mL
150 mg/kg SC day 0, study week 5, intrarectal SHIV dose 10 x TCID50
  Plasma SHIV: <200 copies/mL
150 mg/kg SC day 0, study week 6, intrarectal SHIV dose 10 x TCID50
  Plasma SHIV: <200 copies/mL
150 mg/kg SC day 0, study week 7, intrarectal SHIV dose 10 x TCID50
  Plasma SHIV: <200 copies/mL
150 mg/kg SC day 0, study week 8, intrarectal SHIV dose 10 x TCID50
  Plasma SHIV: <200 copies/mL
150 mg/kg SC day 0, study week 9, intrarectal SHIV dose 33 x TCID50
  Plasma SHIV: <200 copies/mL
150 mg/kg SC day 0, study week 10, intrarectal SHIV dose 33 x TCID50
  Plasma SHIV: <200 copies/mL
300 mg/kg SC day 0, study week 1, intrarectal SHIV dose 10 x TCID50
  Plasma SHIV: <200 copies/mL
300 mg/kg SC day 0, study week 2, intrarectal SHIV dose 10 x TCID50
  Plasma SHIV: <200 copies/mL
300 mg/kg SC day 0, study week 3, intrarectal SHIV dose 10 x TCID50
  Plasma SHIV: <200 copies/mL
300 mg/kg SC day 0, study week 4, intrarectal SHIV dose 10 x TCID50
  Plasma SHIV: <200 copies/mL
300 mg/kg SC day 0, study week 5, intrarectal SHIV dose 10 x TCID50
  Plasma SHIV: <200 copies/mL
300 mg/kg SC day 0, study week 6, intrarectal SHIV dose 10 x TCID50
  Plasma SHIV: <200 copies/mL
300 mg/kg SC day 0, study week 7, intrarectal SHIV dose 10 x TCID50
  Plasma SHIV: <200 copies/mL
300 mg/kg SC day 0, study week 8, intrarectal SHIV dose 10 x TCID50
  Plasma SHIV: <200 copies/mL
300 mg/kg SC day 0, study week 9, intrarectal SHIV dose 33 x TCID50
  Plasma SHIV: <200 copies/mL
300 mg/kg SC day 0, study week 10, intrarectal SHIV dose 33 x TCID50
  Plasma SHIV: <200 copies/mL
150 or 300 mg/kg single SC, weekly intrarectal challenges with escalating SHIV doses, FIGS. 6B, 6C
  infection in relation to Compound Ib plasma exposure: became infected only after the viral challenges were administered at Compound Ib plasma exposures well below the clinical IQ exposure range of 4 to 9
